Data published in PubChem BioAssay AID1963826 (Molecular Pharmacology Branch, DTP, NCI, 2024).

Test system: 926638-142-R-J1-PDC complex spheroid viability
Test: Anticancer human tumor 926638-142-R-J1-PDC patient-derived endometrial carcinoma cell line growth inhibition [POLQ]
Conditions: for IC50: curve of first compound; for viability, T/C: stronger effect = lower value
Summary of the method: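 Patient-derived tumour cells were co-cultured with HUVEC and mesenchymal stem cells as multicellular spheroids at 37 °C. They were treated with POLQ inhibitors (novobiocin, ART-558, RP6685) alone or combined with other agents. Top concentrations were at or near clinical Cmax (otherwise 10 microM; SN-38 at 1 microM), decreasing in half-log steps.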

[1] = second compound 0.0316 µM, first compound 0.0316 µM
[2] = second compound 0.0316 µM, first compound 0.1 µM
[3] = second compound 0.0316 µM, first compound 0.316 µM
[4] = second compound 0.0316 µM, first compound 1 µM
[5] = second compound 0.0316 µM, first compound 3.16 µM
[6] = second compound 0.0316 µM, first compound 10 µM
[7] = second compound 0.1 µM, first compound 0.0316 µM
[8] = second compound 0.1 µM, first compound 0.1 µM
[9] = second compound 0.1 µM, first compound 0.316 µM
[10] = second compound 0.1 µM, first compound 1 µM
[11] = second compound 0.1 µM, first compound 3.16 µM
[12] = second compound 0.1 µM, first compound 10 µM
[13] = second compound 0.316 µM, first compound 0.0316 µM
[14] = second compound 0.316 µM, first compound 0.1 µM
[15] = second compound 0.316 µM, first compound 0.316 µM
[16] = second compound 0.316 µM, first compound 1 µM
[17] = second compound 0.316 µM, first compound 3.16 µM
[18] = second compound 0.316 µM, first compound 10 µM
[19] = second compound 1 µM, first compound 0.0316 µM
[20] = second compound 1 µM, first compound 0.1 µM
[21] = second compound 1 µM, first compound 0.316 µM
[22] = second compound 1 µM, first compound 1 µM
[23] = second compound 1 µM, first compound 3.16 µM
[24] = second compound 1 µM, first compound 10 µM
[25] = second compound 3.16 µM, first compound 0.0316 µM
[26] = second compound 3.16 µM, first compound 0.1 µM
[27] = second compound 3.16 µM, first compound 0.316 µM
[28] = second compound 3.16 µM, first compound 1 µM
[29] = second compound 3.16 µM, first compound 3.16 µM
[30] = second compound 3.16 µM, first compound 10 µM
[31] = second compound 10 µM, first compound 0.0316 µM
[32] = second compound 10 µM, first compound 0.1 µM
[33] = second compound 10 µM, first compound 0.316 µM
[34] = second compound 10 µM, first compound 1 µM
[35] = second compound 10 µM, first compound 3.16 µM
[36] = second compound 10 µM, first compound 10 µM
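Note: spheroids exposed to drugs for one week before readout.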
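Throughout, for viability, T/C: percent viability relative to DMSO vehicle control wells set as 100%.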

COc1cc(C2c3cc4c(cc3C(OC3OC5COC(C)OC5C(O)C3O)C3COC(=O)C23)OCO4)cc(OC)c1O (stereo unspecified) + Nc1ccc(C#CCN(C(=O)Cc2ncc(C(F)(F)F)cc2C(F)(F)F)c2ccc(F)cc2)nn1
IC50 (second compound 0.0316 µM): > 10 µM | IC50 (second compound 0.1 µM): > 10 µM | IC50 (second compound 0.316 µM): > 10 µM | IC50 (second compound 1 µM): > 10 µM | IC50 (second compound 3.16 µM): > 10 µM | IC50 (second compound 10 µM): > 10 µM | viability, T/C [1]: 99.2% | viability, T/C [2]: 81.6% | viability, T/C [3]: 80.3% | viability, T/C [4]: 73.1% | viability, T/C [5]: 77.8% | viability, T/C [6]: 58.1% | viability, T/C [7]: 96.6% | viability, T/C [8]: 101% | viability, T/C [9]: 70.3% | viability, T/C [10]: 67.4% | viability, T/C [11]: 80% | viability, T/C [12]: 53.5% | viability, T/C [13]: 106% | viability, T/C [14]: 77.7% | viability, T/C [15]: 71.7% | viability, T/C [16]: 69.4% | viability, T/C [17]: 69.7% | viability, T/C [18]: 54% | viability, T/C [19]: 102% | viability, T/C [20]: 83.1% | viability, T/C [21]: 80.4% | viability, T/C [22]: 74.4% | viability, T/C [23]: 69.3% | viability, T/C [24]: 57% | viability, T/C [25]: 83.3% | viability, T/C [26]: 87.2% | viability, T/C [27]: 71.2% | viability, T/C [28]: 63.3% | viability, T/C [29]: 76.1% | viability, T/C [30]: 51% | viability, T/C [31]: 94.9% | viability, T/C [32]: 82.6% | viability, T/C [33]: 73.3% | viability, T/C [34]: 63% | viability, T/C [35]: 69% | viability, T/C [36]: 53.4%

O=C(c1cc(Cc2n[nH]c(=O)c3ccccc23)ccc1F)N1CCN(C(=O)C2CC2)CC1 + Nc1ccc(C#CCN(C(=O)Cc2ncc(C(F)(F)F)cc2C(F)(F)F)c2ccc(F)cc2)nn1
IC50 (second compound 0.0316 µM): > 10 µM | IC50 (second compound 0.1 µM): > 10 µM | IC50 (second compound 0.316 µM): > 10 µM | IC50 (second compound 1 µM): > 10 µM | IC50 (second compound 3.16 µM): > 10 µM | IC50 (second compound 10 µM): > 10 µM | viability, T/C [1]: 82.5% | viability, T/C [2]: 96.2% | viability, T/C [3]: 84.5% | viability, T/C [4]: 94.9% | viability, T/C [5]: 81.9% | viability, T/C [6]: 80.4% | viability, T/C [7]: 101% | viability, T/C [8]: 110% | viability, T/C [9]: 86.5% | viability, T/C [10]: 88.2% | viability, T/C [11]: 80.7% | viability, T/C [12]: 73.8% | viability, T/C [13]: 100% | viability, T/C [14]: 93.8% | viability, T/C [15]: 89.7% | viability, T/C [16]: 99% | viability, T/C [17]: 82.8% | viability, T/C [18]: 77.8% | viability, T/C [19]: 97.5% | viability, T/C [20]: 90.6% | viability, T/C [21]: 85% | viability, T/C [22]: 83.2% | viability, T/C [23]: 82% | viability, T/C [24]: 69.3% | viability, T/C [25]: 86.3% | viability, T/C [26]: 89.9% | viability, T/C [27]: 91.4% | viability, T/C [28]: 87.6% | viability, T/C [29]: 98.3% | viability, T/C [30]: 81.6% | viability, T/C [31]: 87.6% | viability, T/C [32]: 85.8% | viability, T/C [33]: 80.1% | viability, T/C [34]: 73.7% | viability, T/C [35]: 81.5% | viability, T/C [36]: 66.1%

O=c1[nH]cc(F)c(=O)[nH]1 + Nc1ccc(C#CCN(C(=O)Cc2ncc(C(F)(F)F)cc2C(F)(F)F)c2ccc(F)cc2)nn1
IC50 (second compound 0.0316 µM): > 10 µM | IC50 (second compound 0.1 µM): > 10 µM | IC50 (second compound 0.316 µM): > 10 µM | IC50 (second compound 1 µM): > 10 µM | IC50 (second compound 3.16 µM): > 10 µM | IC50 (second compound 10 µM): > 10 µM | viability, T/C [1]: 101% | viability, T/C [2]: 107% | viability, T/C [3]: 92.8% | viability, T/C [4]: 82.9% | viability, T/C [5]: 86.5% | viability, T/C [6]: 80.7% | viability, T/C [7]: 100% | viability, T/C [8]: 116% | viability, T/C [9]: 107% | viability, T/C [10]: 83.4% | viability, T/C [11]: 90.8% | viability, T/C [12]: 78.8% | viability, T/C [13]: 85.5% | viability, T/C [14]: 98.1% | viability, T/C [15]: 102% | viability, T/C [16]: 97.8% | viability, T/C [17]: 85.5% | viability, T/C [18]: 83% | viability, T/C [19]: 103% | viability, T/C [20]: 85% | viability, T/C [21]: 99.4% | viability, T/C [22]: 75.9% | viability, T/C [23]: 77.7% | viability, T/C [24]: 76.8% | viability, T/C [25]: 97.7% | viability, T/C [26]: 93.5% | viability, T/C [27]: 88.1% | viability, T/C [28]: 92.5% | viability, T/C [29]: 82.1% | viability, T/C [30]: 70.2% | viability, T/C [31]: 102% | viability, T/C [32]: 81% | viability, T/C [33]: 93.2% | viability, T/C [34]: 85.7% | viability, T/C [35]: 78.2% | viability, T/C [36]: 74.3%
